Patent USRE36736E, “Substituted pyrroles” (Hoffman-La Roche Inc., priority 1998, dated 2000)

Target: protein kinase C
Assay: inhibition of protein kinase C in vitro (protein kinase-induced incorporation of 32P from [γ-32P]ATP into histone)
Assay type: biochemical
Details: histone substrate, read-out: IC50: concentration which reduces by 50% the protein kinase-induced incorporation of ^32 P from [γ-^32 P]ATP into histone
Description: The IC50 figures in the following Table, represent that concentration of test compound which reduces by 50% the protein kinase-induced incorporation of ^32 P from [γ-^32 P]ATP into histone.

Structure (SMILES)	IC50 [nM]
Cn1cc(C2=C(c3cn(CCCSC(=N)N)c4ccccc34)C(=O)NC2=O)c2ccccc21 [3-[1-[3-(amidinothio)propyl]-3-indolyl]-4-(1-methyl-3-indolyl)-1H-pyrrole-2,5-dione]	10
Cn1cc(C2=C(c3cn(CCC(N)=O)c4ccccc34)C(=O)NC2=O)c2ccccc21 [3-[1-(2-carbamoylethyl)-3-indolyl]-4-(1-methyl-3-indolyl)-1H-pyrrole-2,5-dione]	500
Cn1cc(C2=C(c3cn(CCCN=C=S)c4ccccc34)C(=O)NC2=O)c2ccccc21 [3-[1-(3-isothiocyanatopropyl)-3-indolyl]-4-(1-methyl-3-indolyl)-1H-pyrrole-2,5-dione]	8
